Read-outs that look alike come from different tables or passages of the source.
Key:
HeLa cells = experiment: Fluorescent imaging of live cells; type: cell-based; conditions: 10 μM substrate
Experimental: HeLa cells were plated at 40,000 cell/well into wells of an 8-well chambered coverslip and incubated at 37° C.+5% CO2. The media (DMEM) was replaced with warm complete media (with 10% FBS) containing 10 μM PBI-4412, 4413, 4440 or 4441. Cells were then transferred to a confocal microscope for imaging using 10% λ488 nm laser power (4412, 4413, and 4441) or 5% laser power (4440). All images (FIGS. 6a-d) are at 30× magnification.

Clostridium diaphorase = experiment: Fluorescent NADH detection assay, Clostridium diaphorase; type: biochemical; conditions: for FLUs: 1 u/ml Clostridium diaphorase; for Fluorescence time course, Clostridium: 10 uM NADH
Experimental: Each fluorescent substrate (PBI-4412, 4413, 4440, and 4441) was incubated at 920 μM with 0 μM or 10 μM NADH (Sigma) or a titration of NADH (Table 8) and 1 u/ml rat diaphorase (Sigma) or 1 u/ml Clostridium diaphorase (Sigma) in a volume of 100 μl in 50 mM Tris pH 7.5. Single reactions were prepared in the wells of a 96-well black plate at room temperature. Fluorescence was monitored over the course of two hours at excitation and emission wavelengths of 485 and 527, respectively, using a fluorescence plate reader. […] Table 7 and FIGS. 24a-b show the reaction time course with each substrate with 10 uM NADH. Table 8 and FIG. 25 show the NADH titration at 60 minutes with PBI-4440 and 4412 with rat diaphorase.

rat diaphorase = biological target: T1, rat diaphorase (Rattus norvegicus, UniProt P05982); type: biochemical; conditions: for FLUs: 1 u/ml rat diaphorase; for Fluorescence time course, Rat: 10 uM NADH
T1 construct: purchased Sigma
T1 sequence (P05982 2-274 limits assumed): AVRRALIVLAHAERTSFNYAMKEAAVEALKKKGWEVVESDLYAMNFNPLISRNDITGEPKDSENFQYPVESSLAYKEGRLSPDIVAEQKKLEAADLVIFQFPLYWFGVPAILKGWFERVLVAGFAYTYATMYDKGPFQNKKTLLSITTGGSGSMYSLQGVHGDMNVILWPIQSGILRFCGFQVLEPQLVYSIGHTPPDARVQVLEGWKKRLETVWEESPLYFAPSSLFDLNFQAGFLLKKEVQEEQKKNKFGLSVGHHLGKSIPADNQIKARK

Jurkat cells = experiment: Measuring metabolically active cells with quinone coelenterazine derivatives; type: cell-based, human; conditions: Jurkat cell dilutions; 30 minute incubation; Oplophorus luciferase detection reagent
Experimental: Two-fold serial dilutions of Jurkat cells were prepared in PBS, and 50 μl per well transferred to wells in 96-well plates. Compound PBI 4600 and 4601 were diluted in PBS to make 50 μM and 100 μM stocks, respectively. 10 μl of prepared compound stocks were added to the cells, and the cells were placed into 37° C., 5% CO2 incubator. Following a 30 minute incubation, the cells were removed from incubator, cooled at room temperature for 10 minutes, and 50 μl of Oplophorus luciferase detection reagent (Promega Corporation) added directly to the wells. The samples were mixed, incubated at room temperature for 20 minutes, and luminescence measured.

[1] = 10 μM NADH, 60 min, substrate 920 μM

Row | Compound | reduction of substrate in live cells (confocal images) (HeLa cells) | FLUs (Clostridium diaphorase; 0 μM NADH, 60 min) [FLUs] | FLUs (Clostridium diaphorase; [1]) [FLUs] | Fluorescence time course, Clostridium (Clostridium diaphorase; 2 min) [FLUs] | Fluorescence time course, Clostridium (Clostridium diaphorase; 4 min) [FLUs] | Fluorescence time course, Clostridium (Clostridium diaphorase; 5 min) [FLUs] | Fluorescence time course, Clostridium (Clostridium diaphorase; 10 min) [FLUs] | Fluorescence time course, Clostridium (Clostridium diaphorase; 20 min) [FLUs] | Fluorescence time course, Clostridium (Clostridium diaphorase; 30 min) [FLUs] | Fluorescence time course, Clostridium (Clostridium diaphorase; 40 min) [FLUs] | Fluorescence time course, Clostridium (Clostridium diaphorase; 50 min) [FLUs] | Fluorescence time course, Clostridium (Clostridium diaphorase; 60 min) [FLUs] | Fluorescence time course, Clostridium (Clostridium diaphorase; 70 min) [FLUs] | Fluorescence time course, Clostridium (Clostridium diaphorase; 80 min) [FLUs] | Fluorescence time course, Clostridium (Clostridium diaphorase; 90 min) [FLUs] | Fluorescence time course, Clostridium (Clostridium diaphorase; 100 min) [FLUs] | Fluorescence time course, Clostridium (Clostridium diaphorase; 110 min) [FLUs] | Fluorescence time course, Clostridium (Clostridium diaphorase; 120 min) [FLUs] | FLUs (rat diaphorase; 0 μM NADH, 60 min) [FLUs] | FLUs (rat diaphorase; [1]) [FLUs] | also measured
1 | CC1=CC(=O)C(C)=C(C(C)(C)CC(=O)N(C)CCN(C)C(=O)Oc2ccc3c(c2)Oc2cc(OC(=O)N(C)CCN(C)C(=O)CC(C)(C)C4=C(C)C(=O)C=C(C)C4=O)ccc2C32OC(=O)c3ccccc32)C1=O [PBI 4413, Bis-quinone trimethyllock diamine fluorescein] | only reduced once inside cells | 255 | 2517 | 264 | 457 | 698 | 1195 | 2167 | 2896 | 3329 | 3519 | 3664 | 3803 | 3841 | 3798 | 3801 | 3820 | 3821 | 39 | 7397 | Fluorescence time course, Rat (rat diaphorase; 2 min): 180 FLUs; Fluorescence time course, Rat (rat diaphorase; 4 min): 419 FLUs; Fluorescence time course, Rat (rat diaphorase; 5 min): 545 FLUs; Fluorescence time course, Rat (rat diaphorase; 10 min): 1091 FLUs; Fluorescence time course, Rat (rat diaphorase; 20 min): 2151 FLUs; Fluorescence time course, Rat (rat diaphorase; 30 min): 3407 FLUs; Fluorescence time course, Rat (rat diaphorase; 40 min): 4669 FLUs; Fluorescence time course, Rat (rat diaphorase; 50 min): 6127 FLUs; Fluorescence time course, Rat (rat diaphorase; 60 min): 7397 FLUs; Fluorescence time course, Rat (rat diaphorase; 70 min): 9925 FLUs; Fluorescence time course, Rat (rat diaphorase; 80 min): 10959 FLUs; Fluorescence time course, Rat (rat diaphorase; 90 min): 12101 FLUs; Fluorescence time course, Rat (rat diaphorase; 100 min): 13732 FLUs; Fluorescence time course, Rat (rat diaphorase; 110 min): 15434 FLUs; Fluorescence time course, Rat (rat diaphorase; 120 min): 16666 FLUs
2 | CC1=C(C)C(=O)C(C(C)(C)CC(=O)N(C)CCN(C)C(=O)Oc2ccc3c(c2)Oc2cc(OC(=O)N(C)CCN(C)C(=O)CC(C)(C)C4=C(C)C(=O)C(C)=C(C)C4=O)ccc2C32OC(=O)c3ccccc32)=C(C)C1=O [PBI 4441, Bis-quinone trimethyllock diamine fluorescein] | only reduced once inside cells | 314 | 2570 | 354 | 481 | 576 | 1152 | 1974 | 2334 | 2515 | 2514 | 2570 | 2584 | 2561 | 2539 | 2555 | 2515 | 2570 | 120 | 7387 | Fluorescence time course, Rat (rat diaphorase; 2 min): 302 FLUs; Fluorescence time course, Rat (rat diaphorase; 4 min): 608 FLUs; Fluorescence time course, Rat (rat diaphorase; 5 min): 827 FLUs; Fluorescence time course, Rat (rat diaphorase; 10 min): 1961 FLUs; Fluorescence time course, Rat (rat diaphorase; 20 min): 3454 FLUs; Fluorescence time course, Rat (rat diaphorase; 30 min): 4460 FLUs; Fluorescence time course, Rat (rat diaphorase; 40 min): 5442 FLUs; Fluorescence time course, Rat (rat diaphorase; 50 min): 6457 FLUs; Fluorescence time course, Rat (rat diaphorase; 60 min): 7387 FLUs; Fluorescence time course, Rat (rat diaphorase; 70 min): 8891 FLUs; Fluorescence time course, Rat (rat diaphorase; 80 min): 9545 FLUs; Fluorescence time course, Rat (rat diaphorase; 90 min): 9915 FLUs; Fluorescence time course, Rat (rat diaphorase; 100 min): 10496 FLUs; Fluorescence time course, Rat (rat diaphorase; 110 min): 10736 FLUs; Fluorescence time course, Rat (rat diaphorase; 120 min): 11149 FLUs
3 | CC1=C(C)C(=O)C(C(C)(C)CC(=O)N(C)CCN(C)C(=O)Oc2c(Cc3ccco3)nc3c(Cc4ccccc4)nc(-c4ccccc4)cn23)=C(C)C1=O [PBI 4600] | – | – | – | – | – | – | – | – | – | – | – | – | – | – | – | – | – | – | – | – | relationship of luminescence to cell number (Jurkat cells): linear correlation between cell number and luminescence
4 | CC1=C(C)C(=O)C(C(C)(C)CC(=O)N(C)CCN(C)C(=O)Oc2c(Cc3ccccc3)nc3c(Cc4ccccc4)nc(-c4ccccc4)cn23)=C(C)C1=O [PBI 4601] | – | – | – | – | – | – | – | – | – | – | – | – | – | – | – | – | – | – | – | – | relationship of luminescence to cell number (Jurkat cells): linear correlation between cell number and luminescence
